In US11528908B2, “Acaricide and application thereof” (priority 2018, dated 2022):

Key:
[1] = system: adult citrus red mites (Panonychus citri Mcgregor); assay: Glass slide method, mortality of adult mites (Table 7); assay type: in vivo
Experimental: By using the glass slide method, the effects of the 1500-fold diluted solution and the 3000-fold diluted solution of the acaricide prepared in embodiment 3, the 1500-fold diluted solution of the ethoxy-modified trisiloxane, and the 1500-fold diluted solution of the solid sodium dioctyl sulfosuccinate prepared in embodiment 1 on the adult citrus red mites (Panonychus citri Mcgregor) were tested. Each treatment group had 50 citrus red mites, and the measurement was repeated 4 times, with water as a control.

mites = assay: Acaricidal effect of ethoxy-modified trisiloxane alone (statement in summary); details: content 0.667 g/L to 1.0 g/L

CCCCCCCCOC(=O)CC(C(=O)OCCCCCCCC)S(=O)(=O)O.[Na] (stereo not drawn) [sodium dioctyl sulfosuccinate]
Mortality after 10 minutes ([1]; in vivo): 20.35cC % | Mortality after 72 hours ([1]; in vivo): 62.45cC %

ethoxy-modified trisiloxane
Mortality after 10 minutes ([1]; 1500× dilution, 10 minutes after spraying): 15.42dD % | Mortality after 72 hours ([1]; 1500× dilution, 72 hours after spraying): 28.84dD % | damage to plants (mites): serious pesticide damage | acaricidal rate for 72 hours (mites; high concentration): about 30%
